From patent publication US10501459B2, “Substituted imidazo[1,2-a]pyridines as bromodomain inhibitors” (NEOMED Institute, priority 2015, dated 2019)

System: human C-Myc gene transcription in MV-4-11 cells
Experiment: Transcription of human C-Myc in human leukemic MV-4-11 cells (QuantiGene 2.0)
Format: cell-based
Details: inhibition of C-Myc mRNA, 4 hours treatment
Method: b) Transcription of Human C-Myc in Human Leukemic MV-4-11 Cells:
The effect of compounds on transcription of human C-Myc gene is monitored in human B-myelomonocytic leukemia cell line MV-4-11 (from American Type Culture Collection (ATCC), Manassas, Va., USA) using QuantiGene 2.0 assay kit (Affymetrix, Santa Clara, Calif., USA).
Typically, 8,000 MV-4-11 cells are plated in sterile 96-well plates (Costar #3598 from Fisher Scientific Canada, Ottawa, Ontario, Canada) in Iscove's medium supplemented with 10% fetal bovine serum, glutamine (2 mM), and penicillin (100 I.U.) and streptomycin (100 μg/mL) (all from Wisent Inc., St. Bruno, Quebec, Canada). Compounds are dissolved in DMSO at 30 mM. A series of 1:3 dilutions are first made in DMSO, and further […] dilutions are made in serum-containing cell culture media. The final concentration of DMSO is […] in cell culture media. After cells are treated with various concentrations of test compound for 4 hours, cells are lysed using Quantigene 2.0 sample processing kit (#QS0100). C-Myc mRNA is detected using a QuantiGene 2.0 assay kit (#QS0009) with gene-specific probe to human C-Myc (#SA-50182) following the manufacturer's recommendations. Luminescene signals are read on Flexstation II microplate reader (Molecular Devices, Sunnyvale, Calif., USA). Percentage of inhibition of C-Myc transcription is analyzed using EXCEL (2010 version).

Row | IC50 (Homo sapiens, MV4-11, 4 h) [nM] | IC50 [nM] | Structure (SMILES)
1 | 507 |  | Cc1cc(-c2ccc3ncc(S(=O)(=O)N4CCC[C@H]4C)n3c2)cn(C)c1=O [Compound 45, (R)-1,3-dimethyl-5-(3-((2-methylpyrrolidin-1-yl)sulfonyl)imidazo[1,2-a]pyridin-6-yl)pyridin-2(1H)-one]
2 | 731 |  | Cc1cc(-c2ccc3ncc(S(=O)(=O)N(C)C4CCOC4)n3c2)cn(C)c1=O (single isomer, unassigned) [Compound 47, 6-(1,5-dimethyl-6-oxo-1,6-dihydropyridin-3-yl)-N-methyl-N-(tetrahydrofuran-3-yl)imidazo[1,2-a]pyridine-3-sulfonamide]
3 | 615 |  | CO[C@@H]1CCN(S(=O)(=O)c2cnc3ccc(-c4cc(C)c(=O)n(C)c4)cn23)C1 [Compound 51, (R)-5-(3-((3-methoxypyrrolidin-1-yl)sulfonyl)imidazo [1,2-a]pyridin-6-yl)-1,3-dimethylpyridin-2(1H)-one]
4 | 891 |  | Cc1cc(-c2ccc3ncc(S(=O)(=O)NC4CCOC4)n3c2)cn(C)c1=O (single isomer, unassigned) [Compound 52, 6-(1,5-dimethyl-6-oxo-1,6-dihydropyridin-3-yl)-N-(tetrahydrofuran-3-yl) imidazo[1,2-a]pyridine-3-sulfonamide]
5 | 84.5 |  | Cc1nc2ccc(-c3cc(C)c(=O)n(C)c3)cn2c1Cc1cccnc1 [Compound 55, 1,3-dimethyl-5-[2-methyl-3-(3-pyridylmethyl)imidazo[1,2-a]pyridin-6-yl] pyridin-2-one]
6 | 2370 |  | CO[C@H]1CCN(S(=O)(=O)c2cnc3ccc(-c4cc(C)c(=O)n(C)c4)cn23)C1 [Compound 50, (S)-5-(3-((3-methoxypyrrolidin-1-yl)sulfonyl)imidazo[1,2-a]pyridin-6-yl)-1,3-dimethylpyridin-2(1H)-one]
7 | 151 |  | Cc1nc2ccc(-c3cc(C)c(=O)n(C)c3)cn2c1Cc1ccccn1 [Compound 54, 1,3-dimethyl-5-[2-methyl-3-(2-pyridylmethyl)imidazo[1,2-a]pyridin-6-yl] pyridin-2-one]
8 | 234 |  | Cc1cc(-c2ccc3ncc(COCC(F)(F)F)n3c2)cn(C)c1=O [Compound 34, 1,3-dimethyl-5-[3-(2,2,2-trifluoroethoxymethyl)imidazo[1,2-a]pyridin-6-yl]pyridin-2-one]
9 | 153 |  | Cc1nc2ccc(-c3cc(C)c(=O)n(C)c3)cn2c1Cc1ccncc1 [Compound 56, 1,3-dimethyl-5-[2-methyl-3-(4-pyridylmethyl)imidazo[1,2-a]pyridin-6-yl] pyridin-2-one]
10 | 851 |  | Cc1cc(-c2ccc3ncc(S(=O)(=O)C4CCCC4)n3c2)cn(C)c1=O [Compound 49, 5-(3-(cyclopentylsulfonyl)imidazo[1,2-a]pyridin-6-yl)-1,3-dimethylpyridin-2(1H)-one]
11 | 865 |  | Cc1cc(-c2ccc3ncc(S(=O)(=O)NC4CCOCC4)n3c2)cn(C)c1=O [Compound 42, 6-(1,5-dimethyl-6-oxo-1,6-dihydropyridin-3-yl)-N-(tetrahydro-2H-pyran-4-yl)imidazo[1,2-a]pyridine-3-sulfonamide]
12 |  | 537 | Cc1cc(-c2ccc3ncc(S(=O)(=O)N(C)C4CCOC4)n3c2)cn(C)c1=O (single isomer, unassigned) [Compound 48, 6-(1,5-dimethyl-6-oxo-1,6-dihydropyridin-3-yl)-N-methyl-N-(tetrahydrofuran-3-yl)imidazo[1,2-a]pyridine-3-sulfonamide]
13 | 178 |  | Cc1cc(-c2ccc3ncc(S(=O)(=O)N4CCC[C@@H]4C)n3c2)cn(C)c1=O [Compound 46, (S)-1,3-dimethyl-5-(3-((2-methylpyrrolidin-1-yl)sulfonyl)imidazo[1,2-a]pyridin-6-yl)pyridin-2(1H)-one]
14 |  | 597 | Cc1cc(-c2ccc3ncc(S(=O)(=O)NC4CCCOC4)n3c2)cn(C)c1=O (centres unmarked) [Compound 44, 6-(1,5-dimethyl-6-oxo-1,6-dihydropyridin-3-yl)-N-(tetrahydro-2H-pyran-3-yl)imidazo[1,2-a]pyridine-3-sulfonamide]
15 |  | 253 | Cc1cc(-c2ccc3ncc(S(=O)(=O)NC4CCCOC4)n3c2)cn(C)c1=O (centres unmarked) [Compound 43, 6-(1,5-dimethyl-6-oxo-1,6-dihydropyridin-3-yl)-N-(tetrahydro-2H-pyran-3-yl)imidazo[1,2-a]pyridine-3-sulfonamide]
16 |  | 898 | Cc1cc(-c2ccc3ncc(S(=O)(=O)NC4CCOC4)n3c2)cn(C)c1=O (single isomer, unassigned) [Compound 53, 6-(1,5-dimethyl-6-oxo-1,6-dihydropyridin-3-yl)-N-(tetrahydrofuran-3-yl) imidazo[1,2-a]pyridine-3-sulfonamide]

Continued, compound first:

Row | Structure (SMILES) | IC50 (Homo sapiens, MV4-11, 4 h) [nM] | IC50 [nM]
17 | COC(c1ccccc1)c1cnc2ccc(-c3cc(C)c(=O)n(C)c3)cn12 (centres unmarked) [Compound 7, 5-[3-[methoxy(phenyl)methyl]imidazo[1,2-a]pyridin-6-yl]-1,3-dimethyl-pyridin-2-one] | 92.8 | 
18 | Cc1cc(-c2ccc3ncc(CN4CCCCC4=O)n3c2)cn(C)c1=O [Compound 26, 1,3-dimethyl-5-[3-[(2-oxo-1-piperidyl)methyl]imidazo[1,2-a]pyridin-6-yl]pyridin-2-one] | 492 | 
19 | Cc1cc(-c2ccc3ncc(C(=O)N4CCCCC4)n3c2)cn(C)c1=O [Compound 13, 1,3-dimethyl-5-(3-(piperidine-1-carbonyl)imidazo[1,2-a]pyridin-6-yl)pyridin-2(1H)-one] | 2660 | 
20 | Cc1cc(-c2ccc3ncc(COC4CCC4)n3c2)cn(C)c1=O [Compound 25, 5-[3-(cyclobutoxymethyl)imidazo[1,2-a]pyridin-6-yl]-1,3-dimethyl-pyridin-2-one] | 174 | 
21 | Cc1cc(-c2ccc3ncc(C(=O)NC4CCCCC4)n3c2)cn(C)c1=O [Compound 12, N-cyclohexyl-6-(1,5-dimethyl-6-oxo-1,6-dihydropyridin-3-yl)imidazo[1,2-a] pyridine-3-carboxamide] | 912 | 
22 | Cc1cc(-c2ccc3ncc(CN4CCC(F)(F)CC4)n3c2)cn(C)c1=O [Compound 20, 5-[3-[(4,4-difluoro-1-piperidyl)methyl]imidazo[1,2-a]pyridin-6-yl]-1,3-dimethyl-pyridin-2-one] | 112 | 
23 | CCNS(=O)(=O)c1cnc2ccc(-c3cc(C)c(=O)n(C)c3)cn12 [Compound 15, 6-(1,5-dimethyl-6-oxo-1,6-dihydropyridin-3-yl)-N-ethylimidazo[1,2-a] pyridine-3-sulfonamide] | 2520 | 
24 | Cc1cc(-c2ccc3ncc(S(=O)(=O)NC(C)C)n3c2)cn(C)c1=O [Compound 17, 6-(1,5-dimethyl-6-oxo-1,6-dihydropyridin-3-yl)-N-isopropylimidazo [1,2-a] pyridine-3-sulfonamide] | 758 | 
25 | Cc1cc(-c2ccc3ncc(S(=O)(=O)N4CCCC4)n3c2)cn(C)c1=O [Compound 19, 1,3-dimethyl-5-(3-(pyrrolidin-1-ylsulfonyl)imidazo[1,2-a]pyridin-6-yl)pyridin-2(1H)-one] | 170 | 
26 | Cc1cc(-c2ccc3ncc(S(=O)(=O)N4CCCCC4)n3c2)cn(C)c1=O [Compound 14, 1,3-dimethyl-5-(3-(piperidin-1-ylsulfonyl)imidazo[1,2-a]pyridin-6-yl)pyridin-2(1H)-one] | 508 | 
27 | Cc1cc(-c2ccc3ncc(S(=O)(=O)NC4CCCCC4)n3c2)cn(C)c1=O [Compound 18, N-cyclohexyl-6-(1,5-dimethyl-6-oxo-1,6-dihydropyridin-3-yl)imidazo[1,2-a]pyridine-3-sulfonamide] | 93.7 | 
28 | Cc1cc(-c2ccc3ncc(CN4CCOCC4)n3c2)cn(C)c1=O [Compound 21, 1,3-dimethyl-5-[3-(morpholinomethyl)imidazo[1,2-a]pyridin-6-yl]pyridin-2-one] | 816 | 
29 | Cc1cc(-c2ccc3ncc(S(=O)(=O)NC4CCCC4)n3c2)cn(C)c1=O [Compound 16, N-cyclopentyl-6-(1,5-dimethyl-6-oxo-1,6-dihydropyridin-3-yl)imidazo[1,2-a]pyridine-3-sulfonamide] | 81.3 | 
30 | Cc1cc(-c2ccc3ncc(Nc4ccccc4)n3c2)cn(C)c1=O [Compound 30, 5-(3-anilinoimidazo[1,2-a]pyridin-6-yl)-1,3-dimethyl-pyridin-2-one] | 24.9 | 
31 | Cc1cc(-c2ccc3ncc(NCC4CCCC4)n3c2)cn(C)c1=O [Compound 23, 5-[3-(cyclopentylmethylamino)imidazo[1,2-a]pyridin-6-yl]-1,3-dimethyl-pyridin-2-one] | 16.5 | 
32 | Cc1cc(-c2ccc3ncc(NC4CCCC4)n3c2)cn(C)c1=O [Compound 22, 5-[3-(cyclopentylamino)imidazo[1,2-a]pyridin-6-yl]-1,3-dimethyl-pyridin-2-one] | 9.8 | 
33 | Cc1cc(-c2ccc3ncc(C(=O)N4CCOCC4)n3c2)cn(C)c1=O [Compound 11, 1,3-dimethyl-5-(3-(morpholine-4-carbonyl)imidazo[1,2-a]pyridin-6-yl) pyridin-2(1H)-one] | 2730 | 
34 | Cc1nc2ccc(-c3cc(C)c(=O)n(C)c3)cn2c1Cc1ccccc1 [Compound 24, 5-(3-benzyl-2-methyl-imidazo[1,2-a]pyridin-6-yl)-1,3-dimethyl-pyridin-2-one] | 32.2 | 
35 | COC(c1ccccc1)c1cnc2ccc(-c3cc(C)c(=O)n(C)c3)cn12 (centres unmarked) [Compound 6, 5-[3-[methoxy(phenyl)methyl]imidazo[1,2-a]pyridin-6-yl]-1,3-dimethyl-pyridin-2-one] |  | 91.3
